Reference: patent US12630552B2, “Inhibitors of KRAS G12C” (BEIGENE, LTD., priority 2019, dated 2026)

Molecular target: T1, KRAS (aa 1-169) G12C, C51S, C80L, C118S (Homo sapiens, UniProt P01116, C118S/C51S/C80L/G12C)
T1 construct: The KRAS (aa 1-169) G12C, C51S, C80L, C118S with a His-tag; made in house
Experiment: KRAS G12C SOS1-mediated nucleotide exchange / GST-cRaf RBD binding FRET assay
Format: biochemical
Details: GDP-loaded KRAS G12C pre-incubated with compound at 24° C. for 3 hrs; SOS1, GTPγS and GST-cRaf RBD added; FRET 665 nm/620 nm
Procedure: Biochemical Functional Assay:
The KRAS (aa 1-169) G12C, C51S, C80L, C118S with a His-tag was expressed, purified and loaded with GDP in house. All protein and substrate solutions were prepared in assay buffer containing 25 mM HEPES pH7.5, 10 mM MgCl2, and 0.01% Triton X-100. Purified GDP-loaded KRAS (aa 1-169) G12C, C51S, C80L, C118S protein was pre-incubated with a serially diluted compound at 24° C. for 3 hrs. Purified SOS1 (aa 564-1049) protein, GTPγS (Sigma) and GST-cRaf RBD (aa 1-149) were then added to each well and incubated at 24° C. for additional 3 hrs. […] Following the incubation, Mab Anti-6HIS-Tb cryptate (Cisbio) and Mab Anti GST-XL665 (Cisbio) were added and further incubated at 24° C. for 3 hrs. The binding interaction between active GTPγS KRAS G12C and GST-cRaf RBD brings the Tb and XL665 into close proximity enabling an increased FRET signal (Ex337 nm, Em665 nm/620 nm). The inhibition percentage of nucleotide exchange reaction in presence of increasing concentrations of compounds was calculated based on the ratio of fluorescence at 665 nm to that at 620 nm detected on a BMG PHERAstar FSX instrument. The IC50 value of each compound was calculated from fitting the data to the four-parameter logistic model by Dotmatics.

T1 sequence (P01116 1-169 isoform P01116-2 G12C/C51S/C80L/C118S): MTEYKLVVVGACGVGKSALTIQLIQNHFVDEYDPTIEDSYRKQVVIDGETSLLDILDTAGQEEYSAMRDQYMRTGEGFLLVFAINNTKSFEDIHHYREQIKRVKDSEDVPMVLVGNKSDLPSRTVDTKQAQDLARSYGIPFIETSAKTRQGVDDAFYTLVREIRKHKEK

Structure (SMILES)	IC50
C=CC(=O)N1CCN(c2nc(N3CC(N(C)C)C3)nc3c2CN(Cc2cccc4ccccc24)C3)C[C@@H]1CC#N [Example 19, (S)-2-(1-acryloyl-4-(2-(3-(dimethylamino)azetidin-1-yl)-6-(naphthalen-1-ylmethyl)-6,7-dihydro-5H-pyrrolo[3,4-d]pyrimidin-4-yl)piperazin-2-yl)acetonitrile]	976 nM
C=CC(=O)N1CCN(c2nc(OC[C@@H]3CCCN3C)nc3c2CN(c2cccc4c2CCC4)C3)C[C@@H]1CC#N [Example 27, 2-((S)-1-acryloyl-4-(6-(2,3-dihydro-1H-inden-4-yl)-2-(((S)-1-methylpyrrolidin-2-yl)methoxy)-6,7-dihydro-5H-pyrrolo[3,4-d]pyrimidin-4-yl)piperazin-2-yl)acetonitrile]	3720 nM
C=CC(=O)N1CCN(c2nc(OC[C@@H]3CCCN3C)nc3c2CN(Cc2cccc4cccc(Cl)c24)C3)C[C@@H]1CC#N [Example 9, 2-((S)-1-acryloyl-4-(6-((8-chloronaphthalen-1-yl)methyl)-2-(((S)-1-methylpyrrolidin-2-yl)methoxy)-6,7-dihydro-5H-pyrrolo[3,4-d]pyrimidin-4-yl)piperazin-2-yl)acetonitrile]	265 nM
C=CC(=O)N1CCN(c2nc(OC3CCN(C4CCOCC4)CC3)nc3c2CN(C2Cc4cccc5cccc2c45)C3)C[C@@H]1CC#N (stereo partly drawn) [Example 12, 2-((2S)-1-acryloyl-4-(6-(1,2-dihydroacenaphthylen-1-yl)-2-((1-(tetrahydro-2H-pyran-4-yl)piperidin-4-yl)oxy)-6,7-dihydro-5H-pyrrolo[3,4-d]pyrimidin-4-yl)piperazin-2-yl)acetonitrile]	379 nM
C=CC(=O)N1CCN(c2nc(OC[C@@H]3CCCN3C)nc3c2CN(C(=O)c2cc(N)cc4ccccc24)C3)C[C@@H]1CC#N [Example 50]	6.16 nM
C=CC(=O)N1CCN(c2nc(OC[C@@H]3CCCN3C)nc3c2CN(Cc2cc(O)ccc2F)C3)C[C@@H]1CC#N [Example 22, 2-((S)-1-acryloyl-4-(6-(2-fluoro-5-hydroxybenzyl)-2-(((S)-1-methylpyrrolidin-2-yl)methoxy)-6,7-dihydro-5H-pyrrolo[3,4-d]pyrimidin-4-yl)piperazin-2-yl)acetonitrile]	9.63 nM
C=CC(=O)N1CCN(c2nc(OC[C@@H]3CCCN3C)nc3c2CN(Cc2ccc(F)c4ccccc24)C3)C[C@@H]1CC#N [Example 10, 2-((S)-1-acryloyl-4-(6-((4-fluoronaphthalen-1-yl)methyl)-2-(((S)-1-methylpyrrolidin-2-yl)methoxy)-6,7-dihydro-5H-pyrrolo[3,4-d]pyrimidin-4-yl)piperazin-2-yl)acetonitrile]	415 nM
C=CC(=O)N1CCN(c2nc(OC[C@@H]3CCCN3C)nc3c2CN(Cc2ccccc2)C3=O)C[C@@H]1CC#N [Example 44]	9010 nM
C=CC(=O)N1CCN(c2nc(OC[C@@H]3CCCN3C)nc3c2CN(C(=O)c2cc(O)ccc2C)C3)C[C@@H]1CC#N [Example 47]	102 nM
C=CC(=O)N1CCN(c2nc(OCC3CCCN3C)nc3c2CN(C2Cc4cccc5cccc2c45)C3)CC1CC#N (single isomer, unassigned) [Example 15 (P2)]	5.27 nM
C=CC(=O)N1CCN(c2nc(OC3CCN(C)CC3)nc3c2CN(C2Cc4cccc5cccc2c45)C3)CC1CC#N (single isomer, unassigned) [Example 17 (P2)]	949 nM
C=CC(=O)N1CCN(c2nc(OC[C@@H]3CCCN3C)nc3c2CN(C(=O)c2c(O)cccc2F)C3)C[C@@H]1CC#N [Example 36, 2-((S)-1-acryloyl-4-(6-(2-fluoro-6-hydroxybenzoyl)-2-(((S)-1-methylpyrrolidin-2-yl)methoxy)-6,7-dihydro-5H-pyrrolo[3,4-d]pyrimidin-4-yl)piperazin-2-yl)acetonitrile]	238 nM
C=CC(=O)N1CCN(c2nc(OC[C@@H]3CCCN3C)nc3c2CN(C(=O)c2c(C)ccc4ccccc24)C3)C[C@@H]1CC#N [Example 34, 2-((S)-1-acryloyl-4-(6-(2-methyl-1-naphthoyl)-2-(((S)-1-methylpyrrolidin-2-yl)methoxy)-6,7-dihydro-5H-pyrrolo[3,4-d]pyrimidin-4_yl)piperazin-2-yl)acetonitrile]	505 nM
C=CC(=O)N1CCN(c2nc(OC[C@@H]3CCCN3C)nc3c2CN(C2c4ccccc4-c4ccccc42)C3)C[C@@H]1CC#N [Example 40, 2-((S)-4-(6-(9H-fluoren-9-yl)-2-(((S)-1-methylpyrrolidin-2-yl)methoxy)-6,7-dihydro-5H-pyrrolo[3,4-d]pyrimidin-4-yl)-1-acryloylpiperazin-2-yl)acetonitrile]	1510 nM
C=CC(=O)N1CCN(c2nc(OC[C@@H]3CCCN3C)nc3c2CN(C(=O)c2cccc4cccc(Br)c24)C3)C[C@@H]1CC#N [Example 52]	8.51 nM
C=CC(=O)N1CCN(c2nc(OC[C@@H]3C[C@@H](O)CN3C)nc3c2CN(C2Cc4cccc5cccc2c45)C3)C[C@@H]1CC#N (stereo partly drawn) [Example 51]	16.1 nM
C=CC(=O)N1CCN(c2nc(OC[C@@H]3CCCN3C)nc3c2CN(Cc2cccc(C)c2C)C3)C[C@@H]1CC#N [Example 5, 2-((S)-1-acryloyl-4-(6-(2,3-dimethylbenzyl)-2-(((S)-1-methylpyrrolidin-2-yl)methoxy)-6,7-dihydro-5H-pyrrolo[3,4-d]pyrimidin-4-yl)piperazin-2-yl)acetonitrile]	56.1 nM
C=CC(=O)N1CCN(c2nc(OC[C@@H]3CCCN3C)nc3c2CN(C(C)c2cccc4ccccc24)C3)C[C@@H]1CC#N (stereo partly drawn) [Example 11, 2-((2S)-1-acryloyl-4-(2-(((S)-1-methylpyrrolidin-2-yl)methoxy)-6-(1-(naphthalen-1-yl)ethyl)-6,7-dihydro-5H-pyrrolo[3,4-d]pyrimidin-4-yl)piperazin-2-yl)acetonitrile]	170 nM
C=CC(=O)N1CCN(c2nc(OC[C@@H]3CCCN3C)nc3c2CN(C(=O)c2cccc(C)c2Cl)C3)C[C@@H]1CC#N [Example 37, 2-((S)-1-acryloyl-4-(6-(2-chloro-3-methylbenzoyl)-2-(((S)-1-methylpyrrolidin-2-yl)methoxy)-6,7-dihydro-5H-pyrrolo[3,4-d]pyrimidin-4-yl)piperazin-2-yl)acetonitrile]	27.9 nM
C=CC(=O)N1CCN(c2nc(OC[C@@H]3CCCN3C)nc3c2CN(Cc2c(O)ccc4ccccc24)C3)C[C@@H]1CC#N [Example 42, 2-((S)-1-acryloyl-4-(6-((2-hydroxynaphthalen-1-yl)methyl)-2-(((S)-1-methylpyrrolidin-2-yl)methoxy)-6,7-dihydro-5H-pyrrolo[3,4-d]pyrimidin-4-yl)piperazin-2-yl)acetonitrile]	9980 nM
C=CC(=O)N1CCN(c2nc(OC[C@@H]3CCCN3C)nc3c2CN(Cc2cccc4c2CCO4)C3)C[C@@H]1CC#N [Example 21, 2-((S)-1-acryloyl-4-(6-((2,3-dihydrobenzofuran-4-yl)methyl)-2-(((S)-1-methylpyrrolidin-2-yl)methoxy)-6,7-dihydro-5H-pyrrolo[3,4-d]pyrimidin-4-yl)piperazin-2-yl)acetonitrile]	92.5 nM
C=CC(=O)N1CCN(c2nc(OCC3CCCN3C)nc3c2CN(C2Cc4cccc5cccc2c45)C3)CC1CC#N (single isomer, unassigned) [Example 15 (P1)]	492 nM
C=CC(=O)N1CCN(c2nc(OC[C@@H]3CCCN3C)nc3c2CN(c2cccc4cccc(C)c24)C3)C[C@@H]1CC#N [Example 28, 2-((S)-1-acryloyl-4-(6-(8-methylnaphthalen-1-yl)-2-(((S)-1-methylpyrrolidin-2-yl)methoxy)-6,7-dihydro-5H-pyrrolo[3,4-d]pyrimidin-4-yl)piperazin-2-yl)acetonitrile]	178 nM
C=CC(=O)N1CCN(c2nc(OC[C@@H]3CCCN3C)nc3c2CN(Cc2cc(O)cc4ccccc24)C3)C[C@@H]1CC#N [Example 25, 2-((S)-1-acryloyl-4-(6-((3-hydroxynaphthalen-1-yl)methyl)-2-(((S)-1-methylpyrrolidin-2-yl)methoxy)-6,7-dihydro-5H-pyrrolo[3,4-d]pyrimidin-4-yl)piperazin-2-yl)acetonitrile]	3.27 nM
